pIC50: −log10 of the molar value.
target: Recombinant human factor D (Homo sapiens (Human), UniProt P00746); test: Human Complement Factor D Assay: Method 1; format: biochemical; settings: Factor D inhibition, Method 1: 10 nM factor D, 1 hour incubation with compound at room temperature, substrate Z-Lys-thiobenzyl, fluorescence readout; read-out: IC50
Sequence (P00746 26-253): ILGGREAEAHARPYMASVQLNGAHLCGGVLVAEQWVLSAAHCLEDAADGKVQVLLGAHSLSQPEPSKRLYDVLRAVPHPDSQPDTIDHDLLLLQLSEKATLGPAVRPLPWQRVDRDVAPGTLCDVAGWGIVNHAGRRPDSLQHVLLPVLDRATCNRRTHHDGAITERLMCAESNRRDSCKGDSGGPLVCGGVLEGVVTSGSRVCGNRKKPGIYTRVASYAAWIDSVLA

Row | SMILES | pIC50
1 | NC(=O)c1nn(CC(=O)N2[C@@H]3C[C@@H]3C[C@H]2C(=O)NC2CC2c2ccc(F)cc2F)c2ccccc12 (single isomer, unassigned) [Example 76] | 7.44
2 | CC(=O)c1nn(CC(=O)N2[C@@H]3C[C@@H]3C[C@H]2C(=O)N[C@@]2(C)C[C@@H]2c2ccccc2)c2cnccc12 [Example 23, (1R,3S,5R)-2-[2-(3-Acetyl-pyrazolo[3,4-c]pyridin-1-yl)-acetyl]-2-aza-bicyclo[3.1.0] hexane-3-carboxylic acid ((1S,2R)-1-methyl-2-phenyl-cyclopropyl)-amide] | 4.88
3 | NC(=O)c1nn(CC(=O)N2[C@@H]3C[C@@H]3C[C@H]2C(=O)N[C@@H]2C[C@H]2c2ccccc2)c2ccccc12 [Example 12, 1-{2-Oxo-2-[(1R,3S,5R)-3-((1R,2S)-2-phenyl-cyclopropylcarbamoyl)-2-aza-bicyclo[3.1.0]hex-2-yl]-ethyl}-1H-indazole-3-carboxylic acid amide] | 7.22
4 | NC(=O)c1nn(CC(=O)N2C[C@H](F)C[C@H]2C(=O)N[C@H]2C[C@@H]2c2ccccc2F)c2cnccc12 [Example 41, 1-(2-{(2S,4R)-4-Fluoro-2-[(1S,2R)-2-(2-fluoro-phenyl)-cyclopropylcarbamoyl]-pyrrolidin-1-yl}-2-oxo-ethyl)-1H-pyrazolo[3,4-c]pyridine-3-carboxylic acid amide] | 5.93
5 | NC(=O)c1nn(CC(=O)N2C[C@H](F)C[C@H]2C(=O)N[C@@H]2C[C@H]2c2ccccc2F)c2cnccc12 [Example 40, 1-(2-{(2S,4R)-4-Fluoro-2-[(1R,2S)-2-(2-fluoro-phenyl)-cyclopropylcarbamoyl]-pyrrolidin-1-yl}-2-oxo-ethyl)-1H-pyrazolo[3,4-c]pyridine-3-carboxylic acid amide] | 6.85
6 | CC(=O)c1nn(CC(=O)N2[C@@H]3C[C@@H]3C[C@H]2C(=O)N[C@@H]2C[C@H]2c2cccc(Cl)c2F)c2ncccc12 [Example 56, (1R,3S,5R)-2-[2-(3-Acetyl-pyrazolo[3,4-b]pyridin-1-yl)-acetyl]-2-aza-bicyclo[3.1.0]hexane-3-carboxylic acid [(1R,2S)-2-(3-chloro-2-fluoro-phenyl)-cyclopropyl]-amide] | 6.96
7 | Cc1cc2c(C(N)=O)nn(CC(=O)N3[C@@H]4C[C@@H]4C[C@H]3C(=O)N[C@H]3C[C@]3(F)c3ccccc3)c2cn1 [Example 49, 1-{2-[(1R,3S,5R)-3-((1S,2S)-2-Fluoro-2-phenyl-cyclopropylcarbamoyl)-2-aza-bicyclo[3.1.0]hex-2-yl]-2-oxo-ethyl}-5-methyl-1H-pyrazolo[3,4-c]pyridine-3-carboxylic acid amide] | 5.93
8 | NC(=O)c1nn(CC(=O)N2[C@@H]3C[C@@H]3C[C@H]2C(=O)N[C@H]2C[C@@H]2c2ccccc2Cl)c2cnccc12 [Example 21, 1-(2-{(1R,3S,5R)-3-[(1S,2R)-2-(2-Chloro-phenyl)-cyclopropylcarbamoyl]-2-aza-bicyclo[3.1.0]hex-2-yl}-2-oxo-ethyl)-1H-pyrazolo[3,4-c]pyridine-3-carboxylic acid amide] | 5.85
9 | CC(=O)c1nn(CC(=O)N2[C@@H]3C[C@@H]3C[C@H]2C(=O)N[C@@H]2C[C@@]2(F)c2ccccc2)c2ncccc12 [Example 44, (1R,3S,5R)-2-[2-(3-Acetyl-pyrazolo[3,4-b]pyridin-1-yl)-acetyl]-2-aza-bicyclo[3.1.0] hexane-3-carboxylic acid ((1R,2R)-2-fluoro-2-phenyl-cyclopropyl)-amide] | 7.18
10 | Cc1cc2c(C(N)=O)nn(CC(=O)N3C[C@H](F)C[C@H]3C(=O)N[C@@H]3C[C@H]3c3ccccc3F)c2cn1 [Example 71, 1-(2-{(2S,4R)-4-Fluoro-2-[(1R,2S)-2-(2-fluoro-phenyl)-cyclopropylcarbamoyl]-pyrrolidin-1-yl}-2-oxo-ethyl)-5-methyl-1H-pyrazolo[3,4-c]pyridine-3-carboxylic acid amide] | 7.05
11 | CC(=O)c1nn(CC(=O)N2[C@@H]3C[C@@H]3C[C@H]2C(=O)N[C@H]2C[C@@H]2c2cccc(Cl)c2)c2ncccc12 [Example 55, (1R,3S,5R)-2-[2-(3-acetyl-pyrazolo[3,4-b]pyridin-1-yl)-acetyl]-2-aza-bicyclo[3.1.0]hexane-3-carboxylic acid[(1S,2R)-2-(3-chloro-phenyl)-cyclopropyl]-amide] | 5.80
12 | NC(=O)c1nn(CC(=O)N2[C@@H]3C[C@@H]3C[C@H]2C(=O)NC2CC2(F)c2ccccc2F)c2ccccc12 (single isomer, unassigned) [Example 51] | 6.00
13 | NC(=O)c1nn(CC(=O)N2[C@@H]3C[C@@H]3C[C@H]2C(=O)N[C@@H]2C[C@H]2c2ccccc2)c2ncccc12 [Example 13, 1-{2-Oxo-2-[(1R,3S,5R)-3-((1R,2S)-2-phenyl-cyclopropylcarbamoyl)-2-aza-bicyclo[3.1.0]hex-2-yl]-ethyl}-1H-pyrazolo[3,4-b]pyridine-3-carboxylic acid amide] | 6.76
14 | CC(=O)c1nn(CC(=O)N2[C@@H]3C[C@@H]3C[C@H]2C(=O)NC2CC2c2ccc(OC(F)F)cc2)c2cnccc12 (stereo partly drawn) [Example 32, (1R,3S,5R)-2-[2-(3-Acetyl-pyrazolo[3,4-c]pyridin-1-yl)-acetyl]-2-aza-bicyclo[3.1.0]hexane-3-carboxylic acid[2-(4-difluoromethoxy-phenyl)-cyclopropyl]-amide] | 6.49
15 | CCc1cc2c(C(N)=O)nn(CC(=O)N3[C@@H]4C[C@@H]4C[C@H]3C(=O)N[C@@H]3C[C@H]3c3ccccc3Cl)c2cn1 [Example 68, 1-(2-{(1R,3S,5R)-3-[(1R,2S)-2-(2-Chloro-phenyl)-cyclopropylcarbamoyl]-2-aza-bicyclo[3.1.0]hex-2-yl}-2-oxo-ethyl)-5-ethyl-1H-pyrazolo[3,4-c]pyridine-3-carboxylic acid amide] | 7.43
16 | NC(=O)c1nn(CC(=O)N2[C@@H]3C[C@@H]3C[C@H]2C(=O)NC2CC2(F)c2ccccc2F)c2ccccc12 (single isomer, unassigned) [Example 52] | 6.44
17 | Cc1cc2c(C(N)=O)nn(CC(=O)N3[C@@H]4C[C@@H]4C[C@H]3C(=O)N[C@@H]3C[C@H]3c3ccccc3)c2cn1 [Example 15, 5-Methyl-1-{2-oxo-2-[(1R,3S,5R)-3-((1R,2S)-2-phenyl-cyclopropylcarbamoyl)-2-aza-bicyclo[3.1.0]hex-2-yl]-ethyl}-1H-pyrazolo[3,4-]pyridine-3-carboxylic acid amide] | 6.94
18 | CC(=O)c1nn(CC(=O)N2[C@@H]3C[C@@H]3C[C@H]2C(=O)N[C@@H]2C[C@H]2c2ccccc2)c2ncccc12 [Example 8, (1R,3S,5R)-2-[2-(3-Acetyl-pyrazolo[3,4-b]pyridin-1-yl)-acetyl]-2-aza-bicyclo[3.1.0]hexane-3-carboxylic acid ((1R,2S)-2-phenyl-yclopropyl)-amide] | 6.91
19 | Cc1cc2c(C(N)=O)nn(CC(=O)N3[C@@H]4C[C@@H]4C[C@H]3C(=O)N[C@@H]3C[C@@]3(F)c3ccccc3)c2cn1 [Example 48, 1-{2-[(1R,3S,5R)-3-((1R,2R)-2-Fluoro-2-phenyl-cyclopropylcarbamoyl)-2-aza-bicyclo[3.1.0]hex-2-yl]-2-oxo-ethyl}-5-methyl-1H-pyrazolo[3,4-c]pyridine-3-carboxylic acid amide] | 7.52
20 | NC(=O)c1nn(CC(=O)N2[C@@H]3C[C@@H]3C[C@H]2C(=O)NC2CC2(F)c2ccccc2F)c2ccccc12 (single isomer, unassigned) [Example 53] | 7.44

Reference: US9815819B2, “Complement pathway modulators and uses thereof” (priority 2012, dated 2017)
